Data reported in ChEMBL document CHEMBL1201862, “PubChem BioAssay data set” (2004).
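Following 48 hours of exposure in 96-well plates, responses at five concentrations were used to interpolate endpoints linearly. Abbreviation: GI50, concentration required for 50% inhibition of growth.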 Calls of active or inactive are those of the source. Rule as the data show it: active = GI50 up to about 1.1 µM and inactive = higher.

Key:
Test in all cases: inhibition of tumour cell growth, NCI panel, 48 h
786-0 = tested on: 786-0
A498 = tested on: A498
A549 = tested on: A549
ACHN = tested on: ACHN
BT-549 = tested on: BT-549
CAKI-1 = tested on: CAKI-1
CCRF-CEM = tested on: CCRF-CEM
COLO 205 = tested on: COLO 205
DU-145 = tested on: DU-145
EKVX = tested on: EKVX
HCC 2998 = tested on: HCC 2998
HCT-116 = tested on: HCT-116
HCT-15 = tested on: HCT-15
HL-60 = tested on: HL-60
HOP-62 = tested on: HOP-62
HOP-92 = tested on: HOP-92
HT-29 = tested on: HT-29
Hs-578T = tested on: Hs-578T
IGROV-1 = tested on: IGROV-1
K562 = tested on: K562
KM12 = tested on: KM12
LOX IMVI = tested on: LOX IMVI
M14 = tested on: M14
MCF7 = tested on: MCF7
MDA-MB-435 = tested on: MDA-MB-435
MOLT-4 = tested on: MOLT-4
Malme-3M = tested on: Malme-3M
NCI-H226 = tested on: NCI-H226
NCI-H23 = tested on: NCI-H23
NCI-H460 = tested on: NCI-H460
NCI-H522 = tested on: NCI-H522
NCI/ADR-RES = tested on: NCI/ADR-RES
OVCAR-3 = tested on: OVCAR-3
OVCAR-4 = tested on: OVCAR-4
OVCAR-5 = tested on: OVCAR-5
OVCAR-8 = tested on: OVCAR-8
PC-3 = tested on: PC-3
RPMI-8226 = tested on: RPMI-8226
RXF 393 = tested on: RXF 393
SF-268 = tested on: SF-268
SF-295 = tested on: SF-295
SF-539 = tested on: SF-539
SK-MEL-28 = tested on: SK-MEL-28
SK-MEL-2 = tested on: SK-MEL-2
SK-MEL-5 = tested on: SK-MEL-5
SNB-19 = tested on: SNB-19
SNB-75 = tested on: SNB-75
SR = tested on: SR
SW-620 = tested on: SW-620
T47D = tested on: T47D
TK-10 = tested on: TK-10
U-251 = tested on: U-251
UACC-257 = tested on: UACC-257
UACC-62 = tested on: UACC-62
UO-31 = tested on: UO-31
MDA-MB-231 = tested on: MDA-MB-231
MDA-N = tested on: MDA-N
SK-OV-3 = tested on: SK-OV-3

Measured: GI50

O=C(O)c1nc2ccccc2nc1Nc1ccc(F)cc1
26.7 µM: HCT-15
inactive: 786-0 40.9 µM | A498 40 µM | A549 33.4 µM | ACHN 26.9 µM | BT-549 44.3 µM | CAKI-1 20.9 µM | CCRF-CEM 29.8 µM | COLO 205 29.5 µM | DU-145 33.7 µM | EKVX 36.4 µM | HCC 2998 32.1 µM | HCT-116 30.8 µM | HL-60 25.7 µM | HOP-62 30.4 µM | HOP-92 27.1 µM | HT-29 42.1 µM | Hs-578T 29.2 µM | IGROV-1 37.4 µM | K562 32.1 µM | KM12 41.6 µM | LOX IMVI 34.1 µM | M14 25.5 µM | MCF7 29.9 µM | MDA-MB-435 34.8 µM | MOLT-4 28.3 µM | Malme-3M 37.9 µM | NCI-H226 23.7 µM | NCI-H23 34 µM | NCI-H460 34 µM | NCI-H522 25.1 µM | NCI/ADR-RES 36.8 µM | OVCAR-3 15.3 µM | OVCAR-4 41.8 µM | OVCAR-5 56.4 µM | OVCAR-8 38.9 µM | PC-3 27.9 µM | RPMI-8226 23.1 µM | RXF 393 14.5 µM | SF-268 22.9 µM | SF-295 24 µM | SF-539 23.5 µM | SK-MEL-28 36.4 µM | SK-MEL-2 26.9 µM | SK-MEL-5 21.6 µM | SNB-19 30.8 µM | SNB-75 24.8 µM | SR 32.7 µM | SW-620 38.5 µM | T47D 28.4 µM | TK-10 34.5 µM | U-251 37.7 µM | UACC-257 29.6 µM | UACC-62 27.2 µM | UO-31 43 µM

Cc1c2n(c3ccccc13)S(=O)(=O)c1ccccc1-2
48.1 µM: HCT-15
inactive: 786-0 10.1 µM | A498 11 µM | A549 23.4 µM | ACHN 18.1 µM | BT-549 39.8 µM | CAKI-1 12.3 µM | CCRF-CEM > 100 µM | COLO 205 > 100 µM | DU-145 47.2 µM | EKVX 6.37 µM | HCC 2998 > 100 µM | HCT-116 21.2 µM | HL-60 > 100 µM | HOP-92 30.2 µM | HT-29 15.4 µM | Hs-578T 18.7 µM | IGROV-1 25.3 µM | K562 > 100 µM | KM12 > 100 µM | LOX IMVI 44.6 µM | M14 27.4 µM | MCF7 28.9 µM | MDA-MB-231 17.8 µM | MDA-MB-435 > 100 µM | MDA-N 34.9 µM | MOLT-4 > 100 µM | Malme-3M 33.1 µM | NCI-H226 77.3 µM | NCI-H23 23.2 µM | NCI-H460 30.5 µM | NCI-H522 34.2 µM | NCI/ADR-RES 28.1 µM | OVCAR-3 45.9 µM | OVCAR-4 17.2 µM | OVCAR-5 88.3 µM | OVCAR-8 21.2 µM | PC-3 22.5 µM | RPMI-8226 > 100 µM | SF-295 17.3 µM | SK-MEL-28 > 100 µM | SK-MEL-5 72.1 µM | SK-OV-3 14.6 µM | SNB-19 19.8 µM | SR > 100 µM | SW-620 > 100 µM | TK-10 25.6 µM | U-251 18.4 µM | UACC-257 > 100 µM | UACC-62 28.1 µM | UO-31 18.4 µM
